One assay relates to α-glucosidase. The assay is described as follows: Kinetic analysis of α-glucosidase inhibition (Lineweaver–Burk plots). The class given is biochemical, S. cerevisiae. As to conditions: for type of inhibition against α-glucosidase: Lineweaver–Burk plots; for Vmax: maximum reaction velocity of α-glucosidase in presence of inhibitor. On the procedure: Kinetic analysis was carried out to understand the interaction of tripalmitin with α-glucosidase. Lineweaver–Burk plots were constructed using different concentrations of substrate and tripalmitin.
(§1) The α-glucosidase inhibitory assay was performed according to the protocol established in our laboratory. α-Glucosidase from baker’s yeast purchased from Sigma Chemical Co. The inhibition was measured spectrophotometrically at pH 7.0 and 37 °C employing 2 mM p-nitrophenyl α-D-glucopyranoside (PNP-G) as a substrate and 32 mU/mL of the enzyme, in 100 mM potassium phosphate buffer (enzyme stock). […] The absorbance (A) of 4-nitrophenol released by the hydrolysis of PNP-G was measured at 400 nm by Synergy HT Bio Tek microplate spectrophotometer. […] After incubating, 150 µL of the substrate was added and further incubated for 20 min at 37 °C. All assays are performed in 96-well microplates (Greiner bio-one 655101) in duplicate. The activity of samples was calculated as a percentage in comparison to a control (DMSO or MeOH instead of sample solution) according to the following equation: %Inhibition=ΔAcontrol-ΔAsample/ΔAcontrol×100%

Assay [1] concerns the target α-Glucosidase from baker's yeast. The assay is described as follows: α-Glucosidase inhibitory assay (PNP-G substrate). The format is biochemical, S. cerevisiae. On the procedure: as §1
The concentration required to inhibit activity of the enzyme by 50% (IC50) was calculated by regression analysis.

Setting [2] is: standards purchased from Sigma-Aldrich.

“And” between values parts separate entries of the source, which are not always exact repeats. Identical values can stand only once.

In general, Vmax refers to the rate approached at saturating substrate. The IC50 is the concentration that inhibits the measured activity by half. Turning to `CCCCCCCCCCCCCCCC(=O)OCC(COC(=O)CCCCCCCCCCCCCCC)OC(=O)CCCCCCCCCCCCCCC` [Compound 1, tripalmitin], in the assay with α-glucosidase, the “type of inhibition against α-glucosidase” value is listed as “mixed inhibitor” and the Vmax is 0.0027 ± 0.0001 mmol/L/min. In addition, in assay [1] (pH 7.0, 37 °C, 2 mM PNP-G), the 50% inhibitory concentration (IC50) was 3750 nM and 3670 nM; the “IC50 α-glucosidase” value came out at 3.02 µg/mL. Further, in assay [1] (setting [2]), the concentration for half-maximal inhibition (IC50) came to 3200 nM.

In the case of `OCC(O)CO` [glycerol], the “α-glucosidase inhibition (result in words)” value in assay [1] (obtained from methanolysis reaction) was “inactive”.

In the case of `CCCCCCCCCCCCCCCC(=O)OC` [methyl palmitate], in the assay on α-glucosidase, the “type of inhibition against α-glucosidase” value was “mixed inhibitors” and the Vmax worked out at 0.0024 ± 0.0002 mmol/L/min. Moreover, in assay [1] (pH 7.0, 37 °C, 2 mM PNP-G), the 50% inhibitory concentration (IC50) was 460 nM and the “IC50 α-glucosidase” value is 0.13 µg/mL.

Regarding `CCCCCCCC/C=C\CCCCCCCC(=O)O` [oleic acid], the half-inhibitory concentration (IC50) in assay [1] (pH 7.0, 37 °C, 2 mM PNP-G) was found to be 230 nM.

Consider `CCCCCCCCCCCCCCCCCC(=O)O` [stearic acid], for which the IC50 in assay [1] (pH 7.0, 37 °C, 2 mM PNP-G) turned out to be 810 nM.

For the compound `CCCCCCCC/C=C\CCCCCCCC(=O)OCC(COC(=O)CCCCCCC/C=C\CCCCCCCC)OC(=O)CCCCCCC/C=C\CCCCCCCC` [triolein], the IC50 in assay [1] (setting [2]) was 1520 nM.

Source of the values: PMC6661824, “α-Glucosidase inhibitors from a mangrove associated fungus, Zasmidium sp. strain EM5-10” (BMC Chemistry, 2019).
